Data reported in US20140228299A1, “PROPHYLACTIC AND THERAPEUTIC AGENT FOR NEUROLOGICAL DISEASES USING LIPOPROTEINS AND PROPHYLACTIC AND THERAPEUTIC METHOD FOR NEUROLOGICAL DISEASES” (National University Corporation Tokyo Medical and Dental …, priority 2011, published 2014).

Columns and labels:
[1] = tested on: retinal ganglion cells of GLAST knockout mouse; assay: Intravitreal administration to GLAST knockout mouse (normal-pressure glaucoma model), counting of retinal ganglion cells; assay type: in vivo
Description: This example is an experiment to investigate whether the reconstituted lipoprotein containing apolipoprotein E3 (LP) inhibits apoptosis of the […] of a GLAST knockout mouse as a normal-pressure glaucoma model animal. […] The eyeball was removed at the time of six weeks, followed by fixing with paraffin, staining with hematoxylin-eosin, and counting the retinal glia cells on the retina.
Three-week-old GLAST+/− or GLAST−/− mice were anesthetized by intraperitoneal injection of 50 mg/kg of pentobarbital sodium. […]
The eyeball of a six-week-old mouse was removed and fixed overnight at 4° C. using Super Fix (KY-500, Kurabo. Osaka), followed by removing the cornea and the crystalline lens under a stereoscopic microscope. […] Five sections were selected from each of the continuous sections and the number of the cells within the glia cell layer was counted in a range extending from one end of the retinal section to the other end through the optic nerve. More than 2,000 cells were counted on 10 sections of each retina.

retinal ganglion cells = assay: Glutamic acid-induced apoptosis of cultured retinal ganglion cells (Hoechst 33342 or calcein AM/propidium iodide staining); assay type: cell-based, rat
Description: The primary culture of the retinal glia cells was carried out using two-day-old Sprague Dawley (SD) baby rats in accordance with a somewhat modified method (Hayashi et al., J. Biol. Chem. 2009) of the method of Barres et al. (Barres, et al., 1988). The isolated retinal glia cells (RGC) were suspended in a base culture medium of a RGC medium (1 mM glutamine, 5 μg/mL insulin, 60 μg/mL N-acetylcysteine, 62 ng/mL progesterone, 16 μg/mL putrescine, 40 ng/mL sodium selenite, 0.1 mg/mL bovine serum albumin, 40 ng/mL triiodothyronine, 0.1 mg/mL transferrin, 1 mM sodium pyruvate, 2% B27 supplement (Invitrogen, Carlsbad, Calif.), 10 μM forskolin (Sigma, St. Louis, Mo.), 50 ng/mL brain-derived neurotrophic factor (BDNF; PeproTech, Rocky Hill, N.J.), 50 ng/mL ciliary neurotrophic factor (CNTF; Peprotech), and 50 ng/mL basic fibroblast growth factor (bFGF; PeproTech). A 96-well plate was coated with poly-d-lysine (Sigma) and laminin (Sigma), and RGC was placed at the rate of 5,000 cells per well for the 96-well place, 5,000 cells per each culture insert for microdish, or 15,000 cells per dish for compartmentalized culture, followed by incubating for at least 10 days before experimentation.
In the figure, Cant represents a non-treated group, Glu represents a group with 300 μM glutamic acid added, and +glial LP represents a group with 300 μM glutamate+glia-cell-derived lipoprotein containing apolipoprotein E added. Glial LP was added in the concentration of 1 μg cholesterol/mL. After treatment, the rate of apoptosis-like cells was computed by observing the aggregation of the nuclei (a: nuclear staining with Hoechst 33342) or the sustained impermeability of esterase activity/membrane (b: calcein AM/Propidium Iodide staining) in 24 hours.
The induction and detection of apoptosis in RGC were performed in the manner as described below. Specifically, RGC was washed twice with Hanks' balanced salt solution (HBSS) containing 2.4 mM CaCl2 and 20 mM HEPES, but not containing magnesium, and incubated at 37° C. for 2 hours in a medium prepared by adding 300 μM glutamate and 10 μM glycine to the above Hanks' balanced salt solution. After treatment with glutamate, RGC was incubated at 37° C. for 22 hours in a RGC culture medium containing no forskolin, BDNF, CNTF and bFGF. In order to detect apoptosis, RGC was stained with 1 μg/mL of Hoechst 33342 (346-07951, Dojindo, Kumamoto, Japan) or 1 μg/mL of calcein-AM/propidium iodide (341-07381, Dojindo). The fluorescence images were observed by Olympus IX71 microscope. The fragmented or aggregated nuclei stained with the above Hoechst reagent were counted as apoptotic nuclei, and round and smooth nuclei were counted as sound nuclei. As the sound nuclei were not stained with propidium iodide, the nuclei stained with propidium iodide were counted as apoptotic nuclei. More than 300 nuclei were counted in each group.
The apoptosis of RGC was measured in the following manner. The RGC subjected to the primary incubated was incubated two times at 37° C. for 15 minutes using Hanks' Balanced Salt Solution (HBSS) containing 2.4 mM CaCl2 and 20 mM 4-(2-hydroxyethyl)-pyperazine-1-ethanesulfonic acid (HEPES) but containing no magnesium and then washed. […], the magnesium was removed from the washing solution. Thereafter, the RGC was treated or not treated with […] (a co-activating agent for the NMDA receptor) in HBSS containing 2.4 mM CaCl2 and 20 mM HEPES (without magnesium) and then incubated at 37° C. for 2 hours. A control (HBSS containing 2.4 mM CaCl2 and 20 mM HEPES (without containing magnesium)) or the RGC treated or not treated with glutamic acid was incubated at 37° C. for 22 hours in the same medium as used for the RGC (without forskolin, brain-derived neurotrophic factor, ciliary neurotrophic factor and basic fibroblast growth factor). […]

| Substance | RGC existence in Glast+/− and Glast−/− mice ([1]; 1 μl of 1.5 μg protein/mL E-LP into vitreous body, three-week-old injected, six-week-old examined) | effect on the inhibitory effects of α2-macroglobulin on neuroprotection (retinal ganglion cells; 100 nM a2M, E-LP 100-3,000 ng protein/mL, Glu, Hoechst 24 hours) | protection of RGC from Glu-induced neurotoxicity, dose dependence (retinal ganglion cells; RGC incubated with E-LP 15 minutes before Glu) | apoptosis of the retinal cells of GLAST knockout mouse ([1]; LP (100 ng protein/mL) into vitreous body at three weeks, eyeball removed at six weeks) | difference in neuroprotective effects between apoE isoforms in RGC treated with glutamic acid (retinal ganglion cells; 100 ng protein/mL, 15 minutes before Glu) | apoptosis of retinal cells induced by glutamic acid (apoptosis-like cells) (retinal ganglion cells; added at 100 ng protein/mL, Hoechst 33342) |
| --- | --- | --- | --- | --- | --- | --- |
| E-LP: reconstituted lipoprotein of 1-palmitoyl-2-oleyl-glycerophosphocoline, cholesterol and recombinant human apolipoprotein E, molar ratio 100:10:1 or 100:0:1 | recovery | inhibited | protected the RGC in a dose-dependent manner |  |  |  |
| LP: reconstituted lipoprotein of POPC, cholesterol and recombinant human apolipoprotein E3 |  |  |  | inhibited apoptosis | no difference | inhibited the apoptosis |
